Measured values taken from patent US20040147478A1, “Combination chemotherapy” (priority 2002, published 2004).
Like-named read-outs stand apart in the source and are kept apart here.

Experiments:
[1] = in vivo; conditions: female, NCr-nu athymic
[2] = in vivo; conditions: female, Balb/C, mouse, po
[3] = system: COLO-205 human colon carcinoma xenografts
[4] = system: COLO-205 human colon carcinoma xenografts; remark: listed apart in the source
[5] = in vivo; conditions: female, NCr-nu athymic; remark: listed apart in the source
[6] = system: C26/clone 10 mouse colon carcinoma
[7] = system: C26/clone 10 mouse colon carcinoma; remark: listed apart in the source
[8] = in vivo; conditions: female, NCr-nu athymic; remark: listed apart in the source
[9] = system: COLO-205 human colon carcinoma xenografts; remark: listed apart in the source
[10] = Capecitabine 500 mg/kg QD alone
[11] = Capecitabine 650 mg/kg QD alone
[12] = Capecitabine 500 mg/kg qd alone
[13] = Capecitabine 650 mg/kg qd alone
[14] = highest dose of capecitabine alone
[15] = Compound A single agent at the MTD

## CCCCCOC(=O)Nc1nc(=O)n([C@@H]2O[C@H](C)[C@@H](O)[C@H]2O)cc1F [Capecitabine, 5′-deoxy-5-fluoro-N-[(pentyloxy)carbonyl]-cytidine]
[1]
  MTD: 650 mg/kg
[2]
  MTD: 750 mg/kg/day
[3]; [10]
  CR (complete response): 0/10
  Net Log10 Kill: 0.7
  Non-specific Deaths: 0/10
  PR (partial response): 1/10
  T-C (tumor growth delay): 33.4 days
  Tumor Free (day 118): 0/10
[3]; [11]
  CR (complete response): 3/10
  Net Log10 Kill: 1.5
  Non-specific Deaths: 0/10
  PR (partial response): 4/10
  T-C (tumor growth delay): 56.0 days
  Tumor Free (day 118): 2/10
[4]; [12]
  Tumor Free (day 112): 1/9
[4]; [13]
  Non-specific Deaths: 0/10
  Tumor Free (day 112): 2/10
[5]
  MTD: 650 mg/kg
[6]; [12]
  CR (complete response): 0/10
  Net Log10 Kill: 0.20
  Non-specific Deaths: 0/10
  PR (partial response): 0/10
  T-C (tumor growth delay): 13.4 days
  Tumor Free (day 56): 0/10
[6]; capecitabine 750 mg/kg alone
  partial tumor responses: 40%
[7]; [12]
  CR (complete response): 4/10
  Net Log10 Kill: 0.50
  Non-specific Deaths: 0/10
  PR (partial response): 1/10
  T-C (tumor growth delay): 18.4 days
  Tumor Free (day 93): 3/10
[7]; both dosages of capecitabine alone
  tumor growth delay: approximately 18 days
[7]; capecitabine 500 mg/kg alone
  complete tumor responses: 40%
  partial tumor responses: 10%
  tumor-free when the study ended on day 93: 30%
[7]; [14]
  complete tumor responses: 70%
  partial tumor responses: 10%
[7]; mouse, in vivo
  loss of initial body weight: approximately 5%
[8]
  MTD: 650 mg/kg
[9]; [12]
  Tumor Free (day 129): 0/10
[9]; [13]
  Non-specific Deaths: 0/10
  Tumor Free (day 129): 0/10

## O=C(NOC[C@H](O)CO)c1ccc(F)c(F)c1Nc1ccc(I)cc1F [Compound A, N-[(R)-2,3-Dihydroxy-propoxy]-3,4-difluoro-2-(2-fluoro-4-iodo-phenylamino)-benzamide]
[1]
  MTD: 12.5 mg/kg
[3]; Compound A 3.13 mg/kg QD alone
  Net Log10 Kill: 0.9
  T-C (tumor growth delay): 40.6 days
[3]; Compound A 6.25 mg/kg QD alone
  Net Log10 Kill: 0.6
  T-C (tumor growth delay): 30.1 days
[3]; [15]
  growth delays: up to 42 days
[3]; Compound A single agent, all tolerated dose levels
  tumor cells survived treatment (net kill calculations): > 10%
[3]; Compound A single agent, all tolerated doses
  complete regressions: > 50%
[4]; Compound A single agent, most tolerated dose levels
  tumor cells survived treatment (net kill calculations): > 10%
[5]
  MTD: 12.5 mg/kg
[8]
  MTD: 12.5 mg/kg
[9]; [15]
  tumor cells survived treatment (net kill calculations): < 10%

## O=C(NOCC1CC1)c1ccc(F)c(F)c1Nc1ccc(I)cc1Cl [CI-1040, 2-(2-Chloro-4-iodo-phenylamino)-N-cyclopropylmethoxy-3,4-difluorobenzamide]
[6]; CI-1040 37.5 mg/kg tid alone
  % Weight Change: −5.6%
  CR (complete response): 0/10
  Net Log10 Kill: −0.93
  Non-specific Deaths: 0/10
  PR (partial response): 0/10
  T-C (tumor growth delay): 1.9 days
  Tumor Free (day 56): 0/10
[6]; CI-1040 75.0 mg/kg tid alone
  % Weight Change: −10.5%
  CR (complete response): 0/10
  Net Log10 Kill: −0.33
  Non-specific Deaths: 0/10
  PR (partial response): 1/10
  T-C (tumor growth delay): 9.0 days
  Tumor Free (day 56): 0/10
[6]; CI-1040 300.0 mg/kg tid alone
  % Weight Change: −5.3%
  CR (complete response): 0/10
  Net Log10 Kill: −0.04
  Non-specific Deaths: 0/10
  PR (partial response): 4/10
  T-C (tumor growth delay): 12.5 days
  Tumor Free (day 56): 0/10
[6]; highest dose of CI-1040 alone
  partial tumor rate: 40%
[7]; CI-1040 37.5 mg/kg tid alone
  % Weight Change: −5.1%
  CR (complete response): 0/10
  Net Log10 Kill: −0.62
  Non-specific Deaths: 0/10
  PR (partial response): 0/10
  T-C (tumor growth delay): 3.8 days
  Tumor Free (day 93): 0/10
[7]; CI-1040 75.0 mg/kg tid alone
  % Weight Change: −5.1%
  CR (complete response): 0/10
  Net Log10 Kill: −0.21
  Non-specific Deaths: 0/10
  PR (partial response): 0/10
  T-C (tumor growth delay): 9.8 days
  Tumor Free (day 93): 0/10
[7]; CI-1040 300.0 mg/kg tid alone
  % Weight Change: −5.1%
  CR (complete response): 0/10
  Net Log10 Kill: 0.25
  Non-specific Deaths: 0/10
  PR (partial response): 2/10
  T-C (tumor growth delay): 16.7 days
  Tumor Free (day 93): 0/10
[7]; CI-1040 300 mg/kg/treatment alone
  partial tumor responses: 20%
[7]; CI-1040 alone, over the dosage range administered
  loss of initial body weight: approximately 5%
